pIC50: −log10 of the molar value.
Target: TNFα (Homo sapiens, UniProt P01375)
Assay: TNF induced HEK-Blue assay (NF-kB-driven secreted alkaline phosphatase reporter)
Type: cell-based
Details: TNFα 0.5 ng/mL, HEK-Blue-CD40L cells, 18 h; read-out: TNF induced HEK-Blue assay IC50 value
In short: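 HEK-Blue-CD40L cells (NF-kB-driven SEAP reporter), 20,000/well, added after 30 min pre-incubation of compound (0.004–25 μM final) with TNFα 0.5 ng/mL final at 37 °C; 18 h incubation. SEAP read with QUANTI-Blue at 620 nm; IC50 from 4-parameter logistic fit, normalized to unstimulated and stimulated DMSO controls.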

Chain of TNFα (P01375 77-233 limits assumed): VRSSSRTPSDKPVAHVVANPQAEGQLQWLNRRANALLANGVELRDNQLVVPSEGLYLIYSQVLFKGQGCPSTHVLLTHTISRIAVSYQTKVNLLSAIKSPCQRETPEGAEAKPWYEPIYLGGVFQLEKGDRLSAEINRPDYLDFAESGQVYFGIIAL

Structure (SMILES)	pIC50
CC(Nc1c(Cl)cnc2ccc(-c3ccc(C(C)(C)O)cc3)cc12)c1nccs1 (racemic) [Example 194, 2-(4-(3-chloro-4-((1-(thiazol-2-yl)ethyl)amino)quinolin-6-yl)phenyl)propan-2-ol]	> 6.00
C[C@@H](Nc1c(Cl)cnc2ccc(-c3ccc(N4CCC(CC(=O)O)CC4)nc3)cc12)c1ccccc1F [Example 82, (R)-2-(1-(5-(3-chloro-4-((1-(2-fluorophenyl)ethyl)amino)quinolin-6-yl)pyridin-2-yl)piperidin-4-yl)acetic acid]	> 6.00
C[C@@H](Nc1c(Cl)cnc2ccc(-c3cnc(N4CCN(Cc5nn[nH]n5)CC4)nc3)cc12)c1ccccc1F [Example 237, (R)-6-(2-(4-((2H-tetrazol-5-yl)methyl)piperazin-1-yl)pyrimidin-5-yl)-3-chloro-N-(1-(2-fluorophenyl)ethyl)quinolin-4-amine]	> 6.00
CCNC(=O)c1ccc(F)c(C(C)Nc2c(Cl)cnc3ccc(-c4cnc(N5CCNC(=O)C5)nc4)cc23)n1 (racemic) [Example 39, 6-(1-((3-chloro-6-(2-(3-oxopiperazin-1-yl)pyrimidin-5-yl)quinolin-4-yl)amino)ethyl)-N-ethyl-5-fluoropicolinamide]	> 6.00
CC(Nc1c(Cl)cnc2cc(F)c(-c3ccc(C(C)(C)O)c(F)c3)cc12)c1ccccc1F (stereo not drawn) [Example 258, 2-(4-(3-chloro-7-fluoro-4-((1-(2-fluorophenyl)ethyl)amino)quinolin-6-yl)-2-fluorophenyl)propan-2-ol]	5.00 to 6.00
CCC(Nc1c(Cl)cnc2ccc(-c3cnc(C(C)(C)O)nc3)cc12)c1nc(CO)ccc1F (stereo not drawn) [Example 130, 2-(5-(3-chloro-4-((1-(3-fluoro-6-(hydroxymethyl)pyridin-2-yl)propyl)amino)quinolin-6-yl)pyrimidin-2-yl)propan-2-ol]	> 6.00
Cc1ccc(C)c(Nc2c(Cl)c(N)nc3ccc(-c4cnc(NCC(O)CO)nc4)cc23)c1 (racemic) [Example 73, 3-((5-(2-amino-3-chloro-4-((2,5-dimethylphenyl)amino)quinolin-6-yl)pyrimidin-2-yl)amino)propane-1,2-diol]	5.00 to 6.00
CC(C)(O)c1ncc(-c2ccc3ncc(Cl)c(NC(C)(C)c4ccc(C(F)(F)F)cc4)c3c2)cn1 [Example 185, 2-(5-(3-chloro-4-((2-(4-(trifluoromethyl)phenyl)propan-2-yl)amino)quinolin-6-yl)pyrimidin-2-yl)propan-2-ol]	4.60 to 5.00
CC(C)(O)c1ncc(-c2ccc3ncc(Cl)c(N[C@H](CCF)c4ccccc4F)c3c2)cn1 (single isomer, unassigned) [Example 238]	> 6.00
CCOC(=O)c1nc2ccc(-c3ccc(C#N)nc3)cc2c(Nc2cc(C)ccc2C)c1Cl [Example 5, ethyl 3-chloro-6-(6-cyanopyridin-3-yl)-4-((2,5-dimethylphenyl)amino)quinoline-2-carboxylate]	5.00 to 6.00
Cc1ccc(C)c(Nc2c(Cl)c(C(=O)Nc3ccccc3)nc3ccc(-c4ccc(C#N)nc4)cc23)c1 [Example 35, 3-chloro-6-(6-cyanopyridin-3-yl)-4-((2,5-dimethylphenyl)amino)-N-phenylquinoline-2-carboxamide]	5.00 to 6.00
C[C@@H](Nc1c(Cl)cnc2ccc(-c3ccc(C4(NS(C)(=O)=O)CCC4)cc3)cc12)c1ccccc1F [Example 111, (R)—N-(1-(4-(3-chloro-4-((1-(2-fluorophenyl)ethyl)amino)quinolin-6-yl)phenyl)cyclobutyl)methanesulfonamide]	4.60 to 5.00
CC(=O)NCc1ccc(-c2ccc3ncc(Cl)c(N[C@H](C)c4ccccc4F)c3c2)cc1 [Example 110, (R)—N-(4-(3-chloro-4-((1-(2-fluorophenyl)ethyl)amino)quinolin-6-yl)benzyl)acetamide]	> 6.00
CNc1ncc(-c2cc(Cl)c3ncc(Cl)c(NC(C)c4ccccc4F)c3c2)cn1 (racemic) [Example 19, 3,8-dichloro-N-(1-(2-fluorophenyl)ethyl)-6-(2-(methylamino)pyrimidin-5-yl)quinolin-4-amine]	4.60 to 5.00
CC(C)(O)c1ncc(-c2cc3c(N[C@@H](c4ccccc4F)C(F)F)c(Cl)cnc3cc2F)cn1 [Example 269, (S)-2-(5-(3-chloro-4-((2,2-difluoro-1-(2-fluorophenyl)ethyl)amino)-7-fluoroquinolin-6-yl)pyrimidin-2-yl)propan-2-ol]	> 6.00
CC(Nc1c(Cl)cnc2cc(F)c(-c3ccc(C(O)C4CC4)cc3)cc12)c1ccccc1F (stereo not drawn) [Example 261, (4-(3-chloro-7-fluoro-4-((1-(2-fluorophenyl)ethyl)amino)quinolin-6-yl)phenyl)(cyclopropyl) methanol]	> 6.00
CCCCCC(C)Nc1c(Cl)cnc2ccc(-c3cnc(C(C)(C)O)nc3)cc12 (racemic) [Example 139, 2-(5-(3-chloro-4-(heptan-2-ylamino)quinolin-6-yl)pyrimidin-2-yl) propan-2-ol]	> 6.00
CC(C)(O)c1ncc(-c2ccc3ncc(Cl)c(NC(C)(C)c4cccc(C(F)(F)F)c4)c3c2)cn1 [Example 182, 2-(5-(3-chloro-4-((2-(3-(trifluoromethyl)phenyl)propan-2-yl)amino)quinolin-6-yl)pyrimidin-2-yl)propan-2-ol]	4.60 to 5.00

Second part, the molecule after the results:

pIC50	Structure (SMILES)
> 6.00	Cc1nc2cc(F)c(-c3cnc(C(C)(C)O)nc3)cc2c(N[C@H](C)c2cc(OCCO)ccc2F)c1Cl [Example 324, (R)-2-(5-(3-chloro-7-fluoro-4-((1-(2-fluoro-5-(2-hydroxyethoxy)phenyl)ethyl)amino)-2-methylquinolin-6-yl)pyrimidin-2-yl)propan-2-ol]
5.00 to 6.00	C[C@@H](Nc1c(Cl)cnc2ccccc12)c1cc(-c2cnc(N3CCOCC3)nc2)ccc1F [Example 467, (R)-3-chloro-N-(1-(2-fluoro-5-(2-morpholinopyrimidin-5-yl)phenyl)ethyl)quinolin-4-amine]
> 6.00	Cc1nc2ccc(-c3cnc(C(C)(C)O)nc3)cc2c(NC(C)c2cc(F)ccc2F)c1Cl (racemic) [Example 317, 2-(5-(3-chloro-4-((1-(2,5-difluorophenyl)ethyl)amino)-2-methylquinolin-6-yl)pyrimidin-2-yl)propan-2-ol]
> 6.00	C[C@@H](Nc1c(Cl)cnc2ccc(-c3cnc(C(C)(C)O)nc3)cc12)c1cc(-c2c[nH]nn2)ccc1F [Example 419, (R)-2-(5-(3-chloro-4-((1-(2-fluoro-5-(1H-1,2,3-triazol-4-yl)phenyl)ethyl)amino)quinolin-6-yl)pyrimidin-2-yl)propan-2-ol]
> 6.00	Cc1nc2ccc(-c3cnc(C(C)(C)O)nc3)cc2c(N[C@H](C)c2cc(NC(=O)OC(C)(C)C)ccc2F)c1Cl [Example 359, tert-Butyl (R)-(3-(1-((3-chloro-6-(2-(2-hydroxypropan-2-yl)pyrimidin-5-yl)-2-methylquinolin-4-yl)amino)ethyl)-4-fluorophenyl)carbamate]
> 6.00	Cc1nc2cc(F)c(-c3cnc(C(C)(C)O)nc3)nc2c(N[C@H](C)c2cc(CO)ccc2F)c1Cl [Example 577, (R)-2-(5-(7-chloro-3-fluoro-8-((1-(2-fluoro-5-(hydroxymethyl)phenyl)ethyl)amino)-6-methyl-1,5-naphthyridin-2-yl)pyrimidin-2-yl)propan-2-ol]
> 6.00	C[C@@H](Nc1c(Cl)cnc2ccc(-c3cnc(C(C)(C)O)nc3)cc12)c1cc(O)ccc1F [Example 405, (R)-3-(1-((3-chloro-6-(2-(2-hydroxypropan-2-yl)pyrimidin-5-yl)quinolin-4-yl)amino)ethyl)-4-fluorophenol]
5.00 to 6.00	CC(Nc1c(Cl)cnc2cc(F)c(-c3cnc(C(O)CO)nc3)cc12)c1ccccc1F (single isomer, unassigned) [Example 597, 1-(5-(3-chloro-7-fluoro-4-((1-(2-fluorophenyl)ethyl)amino)quinolin-6-yl)pyrimidin-2-yl)ethane-1,2-diol]
5.00 to 6.00	C[C@@H](Nc1c(Cl)cnc2ccccc12)c1cc(-c2cnn(C(F)F)c2)ccc1F [Example 471, (R)-3-chloro-N-(1-(5-(1-(difluoromethyl)-1H-pyrazol-4-yl)-2-fluorophenyl)ethyl) quinolin-4-amine]
> 6.00	CC(Nc1c(Cl)cnc2cc(F)c(-c3cnc(C(O)CN4CCC(C(=O)O)CC4)nc3)cc12)c1ccccc1F (single isomer, unassigned) [Example 610, 1-(2-(5-(3-chloro-7-fluoro-4-((1-(2-fluorophenyl)ethyl)amino)quinolin-6-yl)pyrimidin-2-yl)-2-hydroxyethyl) piperidine-4-carboxylic acid]
> 6.00	C[C@@H](Nc1c(Cl)cnc2ccccc12)c1cc(-c2ccc(C#N)nc2)ccc1F [Example 514, (R)-5-(3-(1-((3-chloroquinolin-4-yl)amino)ethyl)-4-fluorophenyl)picolinonitrile]
> 6.00	CC[C@@H](Nc1c(Cl)cnc2ccccc12)c1cc(-c2cncnc2)ccc1F [Example 558, (R)-3-chloro-N-(1-(2-fluoro-5-(pyrimidin-5-yl)phenyl)propyl)quinolin-4-amine]
> 6.00	C[C@@H](Nc1c(Cl)cnc2ccccc12)c1cc(-c2cncs2)ccc1F [Example 542, (R)-3-chloro-N-(1-(2-fluoro-5-(thiazol-5-yl)phenyl)ethyl)quinolin-4-amine]
> 6.00	CC(C)(O)c1ncc(-c2nc3c(N[C@@H](c4cc(C(N)=O)ccc4F)C(F)F)c(Cl)cnc3cc2F)cn1 [Example 493, (S)-3-(1-((3-chloro-7-fluoro-6-(2-(2-hydroxypropan-2-yl)pyrimidin-5-yl)-1,5-naphthyridin-4-yl)amino)-2,2-difluoroethyl)-4-fluorobenzamide]
> 6.00	Cc1nc2cc(F)c(-c3ccc(=O)[nH]c3)cc2c(N[C@H](C)c2cc(Br)ccc2F)c1Cl [Example 449, (R)-5-(4-((1-(5-bromo-2-fluorophenyl)ethyl)amino)-3-chloro-7-fluoro-2-methylquinolin-6-yl)pyridin-2(1H)-one]

Source: patent US10865191B2, “Heterocyclic compounds useful as modulators of TNF alpha” (BRISTOL-MYERS SQUIBB COMPANY, priority 2015, dated 2020)
